Source: patent publication US6753010B2, “Soft gelatin capsule containing angelica oil” (Shandong Luye Phamaceutical Co., Ltd., priority 2000, dated 2004)

Assay: Influence of temperature on ligustilide content in angelica essential oil (gas chromatography, internal standard diethyl phthalate)
Format: physicochemical
Details: for Content of ligustilide: in angelica essential oil, sealed vial
Protocol: Gas chromatograph (Shimadzu GC-14B); Diethyl phthalate (Shanghai First Reagents Factory, purity is 99.7% tested by gas chromatography with area normalization method); angelica essential oil (991007).
Test group: Five portions of angelica essential oil (30 μl each) are placed separately in five 7 ml-sealing vials numbered with 0, 1, 2, 3 and 4, weighed accurately and sealed. The vials are laid in an oven (100° C.) and the samples are taken out of the oven after 0, 1, 2, 3 and 4 hours respectively. Anabout 16 μl of diethyl phthalate as the internal standard is added. Then the samples are weighed accurately and diluted with ca. 1 ml of ethyl alcohol additionally. According to the method in the item of ? Purity Test ? under “Protocol and Remarks of the Quality standard for Angelica essential oil” the content of ligustilide is determined.
Control group: Five portions of angelica essential oil (30 μl each) are placed separately in five 7 ml-sealing vials numbered with 0′, 1′, 2′, 3′ and 4′, weighed accurately and sealed. The vials are laid aside under room temperature of 20° C. and about 16 μl of diethyl phthalate as internal standard is added after 0, 1, 2, 3 and 4 hours respectively. […] with ca. 1 ml of ethyl alcohol additionally. According to the method in the item of ? Purity Test ? under “Protocol and Remarks of the Quality standard for Angelica essential oil”, the content of ligustilide is determined.

## CCC/C=C1\OC(=O)C2=C1CCC=C2 [ligustilide]
In angelica essential oil under room temperature (20° C.)
  Stability of ligustilide content (in words): relatively stable
In angelica essential oil under temperature of 100° C.
  Stability of ligustilide content (in words): decreases gradually
Higher temperature (100° C.), 0 hour
  Content of ligustilide: 55.50%
Higher temperature (100° C.), 1 hour
  Content of ligustilide: 41.89%
Higher temperature (100° C.), 2 hours
  Content of ligustilide: 32.74%
Higher temperature (100° C.), 3 hours
  Content of ligustilide: 21.89%
Higher temperature (100° C.), 4 hours
  Content of ligustilide: 12.00%
Room temperature (20° C.), 0 hour
  Content of ligustilide: 55.5%
Room temperature (20° C.), 1 hour
  Content of ligustilide: 56.01%
Room temperature (20° C.), 2 hours
  Content of ligustilide: 56.66%
Room temperature (20° C.), 3 hours
  Content of ligustilide: 55.78%
Room temperature (20° C.), 4 hours
  Content of ligustilide: 55.39%
